Results on one compound are retold here after publication PMC11062894, “Protein-based bandpass filters for controlling cellular signaling with chemical inputs” (Nature Chemical Biology, 2023).

SMILES strings stand for the structures.

This data set relates to HEK293T cells. The class given is cell-based. The settings on record: 10 µM A-1155463. An excerpt:
drug controlled switches. […]
drug competition assay. This assay is designed to test if the drug of interest can specifically disrupt the interaction between LD3 and BclXL/Bcl2. The drug-receptors (Bcl2, BclXL) are immobilized on the different channels of the sensor chip, then the binding sites are saturated with LD3. While the flux of A-1155463 (red) flows through the sensor chip, the loss of signal is used to monitor the dissociation of the protein complex. b) Drug effects on reporter protein expression of HEK293T cells. HEK293T cells were transfected with a plasmid for constitutive SEAP production and incubated with indicated drugs for 24 hours. SEAP quantifications were performed to measure the protein production and WST-8 was used to test the cell proliferation. Each bar represents the mean of six biological replicates ± s.d., overlaid with a scatter dot plot of the original data points. […]
was added after 24 hours of drug incubation, and measured for absorbance at 450 nm 4 hours later. […]
production of HEK293T cells. […] SEAP quantifications were performed to measure the protein production and WST-8 was used to test the cell proliferation. For cell proliferation assay, WST-8 was added after 24 hours of drug incubation, and measured its absorbance at 450 nm 4 hours later. […]
ranging from 1 pM to 1 µM were added 12 hours post-transfection, then SEAP was measured 24 hours […]

Consider `CN(C)CC#Cc1ccc(OCCCc2sc(N3CCc4cccc(C(=O)Nc5nc6ccccc6s5)c4C3)nc2C(=O)O)c(F)c1` [A-1155463], for which the “effect on cell survival” value is “does not perturb” and the “effect on reporter gene expression” value is on record as “does not perturb”.
